# Results as given in PubChem BioAssay (NCI).
#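 Five concentrations, 48 hours, 96-well plates. Definition used: TGI = concentration required for complete inhibition of growth.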
# How the values were obtained:
# Experiment in all cases: growth of human tumour cells (NCI), 48 h
# 786-0 renal = test system: 786-0 renal
# A498 renal = test system: A498 renal
# A549 NSCLC = test system: A549 NSCLC
# ACHN renal = test system: ACHN renal
# CAKI-1 renal = test system: CAKI-1 renal
# CCRF-CEM leukemia = test system: CCRF-CEM leukemia
# DLD-1 colon = test system: DLD-1 colon
# DMS 114 small cell lung = test system: DMS 114 small cell lung
# DMS 273 small cell lung = test system: DMS 273 small cell lung
# EKVX NSCLC = test system: EKVX NSCLC
# HCC-2998 colon = test system: HCC-2998 colon
# HCT-116 colon = test system: HCT-116 colon
# HCT-15 colon = test system: HCT-15 colon
# HL-60(TB) leukemia = test system: HL-60(TB) leukemia
# HOP-18 NSCLC = test system: HOP-18 NSCLC
# HOP-62 NSCLC = test system: HOP-62 NSCLC
# HOP-92 NSCLC = test system: HOP-92 NSCLC
# HT29 colon = test system: HT29 colon
# IGROV1 ovarian = test system: IGROV1 ovarian
# K-562 leukemia = test system: K-562 leukemia
# KM12 colon = test system: KM12 colon
# KM20L2 colon = test system: KM20L2 colon
# LOX IMVI melanoma = test system: LOX IMVI melanoma
# LXFL 529 NSCLC = test system: LXFL 529 NSCLC
# M14 melanoma = test system: M14 melanoma
# M19-MEL melanoma = test system: M19-MEL melanoma
# MALME-3M melanoma = test system: MALME-3M melanoma
# MOLT-4 leukemia = test system: MOLT-4 leukemia
# NCI-H226 lung = test system: NCI-H226 lung
# NCI-H23 lung = test system: NCI-H23 lung
# NCI-H460 lung = test system: NCI-H460 lung
# NCI-H522 lung = test system: NCI-H522 lung
# OVCAR-3 ovarian = test system: OVCAR-3 ovarian
# OVCAR-4 ovarian = test system: OVCAR-4 ovarian
# OVCAR-5 ovarian = test system: OVCAR-5 ovarian
# OVCAR-8 ovarian = test system: OVCAR-8 ovarian
# RPMI-8226 leukemia = test system: RPMI-8226 leukemia
# RXF 393 renal = test system: RXF 393 renal
# SF-268 CNS = test system: SF-268 CNS
# SF-295 CNS = test system: SF-295 CNS
# SF-539 CNS = test system: SF-539 CNS
# SK-MEL-2 melanoma = test system: SK-MEL-2 melanoma
# SK-MEL-28 melanoma = test system: SK-MEL-28 melanoma
# SK-MEL-5 melanoma = test system: SK-MEL-5 melanoma
# SK-OV-3 ovarian = test system: SK-OV-3 ovarian
# SN12C renal = test system: SN12C renal
# SNB-19 CNS = test system: SNB-19 CNS
# SNB-75 CNS = test system: SNB-75 CNS
# SNB-78 CNS = test system: SNB-78 CNS
# SR leukemia = test system: SR leukemia
# SW-620 colon = test system: SW-620 colon
# TK-10 renal = test system: TK-10 renal
# U251 CNS = test system: U251 CNS
# UACC-257 melanoma = test system: UACC-257 melanoma
# UACC-62 melanoma = test system: UACC-62 melanoma
# UO-31 renal = test system: UO-31 renal
# XF 498 CNS = test system: XF 498 CNS
# COLO 205 colon = test system: COLO 205 colon
# RXF-631 renal = test system: RXF-631 renal
smiles,measurement,setting,value
COc1cc2c[n+](C)c3c4cc(OC)c(OC)cc4c(OCCCCCCCCOc4cc5c6cc(OC)c(OC)cc6c[n+](C)c5c5cc(OC)c(OC)cc45)cc3c2cc1OC,TGI,786-0 renal,> 100 µM
same,TGI,A498 renal,> 100 µM
same,TGI,A549 NSCLC,> 100 µM
same,TGI,ACHN renal,> 100 µM
same,TGI,CAKI-1 renal,> 100 µM
same,TGI,CCRF-CEM leukemia,> 100 µM
same,TGI,DLD-1 colon,> 100 µM
same,TGI,DMS 114 small cell lung,> 100 µM
same,TGI,DMS 273 small cell lung,> 100 µM
same,TGI,EKVX NSCLC,> 100 µM
same,TGI,HCC-2998 colon,> 100 µM
same,TGI,HCT-116 colon,> 100 µM
same,TGI,HCT-15 colon,> 100 µM
same,TGI,HL-60(TB) leukemia,> 100 µM
same,TGI,HOP-18 NSCLC,> 100 µM
same,TGI,HOP-62 NSCLC,> 100 µM
same,TGI,HOP-92 NSCLC,> 100 µM
same,TGI,HT29 colon,> 100 µM
same,TGI,IGROV1 ovarian,> 100 µM
same,TGI,K-562 leukemia,> 100 µM
same,TGI,KM12 colon,> 100 µM
same,TGI,KM20L2 colon,> 100 µM
same,TGI,LOX IMVI melanoma,> 100 µM
same,TGI,LXFL 529 NSCLC,> 100 µM
same,TGI,M14 melanoma,> 100 µM
same,TGI,M19-MEL melanoma,> 100 µM
same,TGI,MALME-3M melanoma,> 100 µM
same,TGI,MOLT-4 leukemia,> 100 µM
same,TGI,NCI-H226 lung,> 100 µM
same,TGI,NCI-H23 lung,> 100 µM
same,TGI,NCI-H460 lung,> 100 µM
same,TGI,NCI-H522 lung,> 100 µM
same,TGI,OVCAR-3 ovarian,> 100 µM
same,TGI,OVCAR-4 ovarian,> 100 µM
same,TGI,OVCAR-5 ovarian,> 100 µM
same,TGI,OVCAR-8 ovarian,> 100 µM
same,TGI,RPMI-8226 leukemia,> 100 µM
same,TGI,RXF 393 renal,> 100 µM
same,TGI,SF-268 CNS,> 100 µM
same,TGI,SF-295 CNS,> 100 µM
same,TGI,SF-539 CNS,> 100 µM
same,TGI,SK-MEL-2 melanoma,> 100 µM
same,TGI,SK-MEL-28 melanoma,> 100 µM
same,TGI,SK-MEL-5 melanoma,> 100 µM
same,TGI,SK-OV-3 ovarian,> 100 µM
same,TGI,SN12C renal,> 100 µM
same,TGI,SNB-19 CNS,66.3 µM
same,TGI,SNB-75 CNS,> 100 µM
same,TGI,SNB-78 CNS,> 100 µM
same,TGI,SR leukemia,> 100 µM
same,TGI,SW-620 colon,> 100 µM
same,TGI,TK-10 renal,> 100 µM
same,TGI,U251 CNS,> 100 µM
same,TGI,UACC-257 melanoma,> 100 µM
same,TGI,UACC-62 melanoma,> 100 µM
same,TGI,UO-31 renal,> 100 µM
same,TGI,XF 498 CNS,> 100 µM
COc1ccc(NC(=O)CC(=O)n2nc(-c3ccccc3)c(N=Nc3ccccc3C(=O)O)c2-c2ccccc2)cc1,TGI,786-0 renal,70.8 µM
same,TGI,A549 NSCLC,> 100 µM
same,TGI,ACHN renal,> 100 µM
same,TGI,CAKI-1 renal,> 100 µM
same,TGI,CCRF-CEM leukemia,> 100 µM
same,TGI,COLO 205 colon,> 100 µM
same,TGI,DLD-1 colon,> 100 µM
same,TGI,DMS 114 small cell lung,> 100 µM
same,TGI,DMS 273 small cell lung,> 100 µM
same,TGI,EKVX NSCLC,> 100 µM
same,TGI,HCC-2998 colon,> 100 µM
same,TGI,HCT-116 colon,> 100 µM
same,TGI,HCT-15 colon,> 100 µM
same,TGI,HOP-62 NSCLC,> 100 µM
same,TGI,HOP-92 NSCLC,41.4 µM
same,TGI,IGROV1 ovarian,> 100 µM
same,TGI,K-562 leukemia,> 100 µM
same,TGI,KM12 colon,> 100 µM
same,TGI,KM20L2 colon,> 100 µM
same,TGI,LOX IMVI melanoma,> 100 µM
same,TGI,LXFL 529 NSCLC,> 100 µM
same,TGI,M19-MEL melanoma,> 100 µM
same,TGI,MOLT-4 leukemia,> 100 µM
same,TGI,NCI-H226 lung,> 100 µM
same,TGI,NCI-H23 lung,> 100 µM
same,TGI,NCI-H522 lung,> 100 µM
same,TGI,OVCAR-3 ovarian,> 100 µM
same,TGI,OVCAR-4 ovarian,> 100 µM
same,TGI,OVCAR-5 ovarian,> 100 µM
same,TGI,OVCAR-8 ovarian,78.9 µM
same,TGI,RPMI-8226 leukemia,> 100 µM
same,TGI,RXF 393 renal,90.7 µM
same,TGI,RXF-631 renal,> 100 µM
same,TGI,SF-268 CNS,> 100 µM
same,TGI,SF-295 CNS,> 100 µM
same,TGI,SF-539 CNS,> 100 µM
same,TGI,SK-MEL-2 melanoma,> 100 µM
same,TGI,SK-MEL-28 melanoma,> 100 µM
same,TGI,SK-MEL-5 melanoma,> 100 µM
same,TGI,SK-OV-3 ovarian,31.8 µM
same,TGI,SN12C renal,> 100 µM
same,TGI,SNB-19 CNS,> 100 µM
same,TGI,SR leukemia,> 100 µM
same,TGI,SW-620 colon,> 100 µM
same,TGI,TK-10 renal,> 100 µM
same,TGI,U251 CNS,> 100 µM
same,TGI,UACC-62 melanoma,> 100 µM
same,TGI,UO-31 renal,> 100 µM
